The values that follow come from patent US20250064717A1, “MANUFACTURE OF COSMETIC CAROTENOID COMPOSITIONS” (Unibar Corporation, priority 2022, published 2025).

For assay [1], the system named is Malassezia furfur (ATCC-14521). The assay can be described thus: Antifungal culture microdilution MIC assay. The note with it: ATCC14521, 50% reduction of fungal growth, 48-72 hours. The format is cell-based. The text has this:
(§1) The anti-fungal activity of CAP-50CR and CAP-1.5SE against Malassezia furfur and Candida albicans are compared with the anti-fungal drug ketoconazole by the minimum inhibitory concentration (“MIC”) method.
(§2) The inhibitory effect assay of CAP-50CR and CAP-1.5SE against Malassezia furfur and Candida albicans may be performed as per a culture microdilution reference method. Ketoconazole, an anti-fungal drug, may be used as the standard. Freeze-dried Candida albicans (ATCC-10231) and Malassezia furfur (ATCC-14521) strains may be used as well. A loopful culture of Malassezia furfur and Candida albicans may be streaked on SDA (Sabouraud Dextrose Agar), and incubated at 35±2° C. and 25±2° C. for 48-72 hours, respectively. Finally, cells may be suspended in a RPMI 1640 medium to obtain a final concentration of 1×10^6 CFU/mL. For the evaluation of inhibitory activity, the effect of CAP-50CR and CAP-1.5SE may be examined against strains of Malassezia furfur and Candida albicans cultured in 96-well microplates at different concentrations of 35±2° C. and 25±2° C., respectively, for 48-72 hours.
(§3) Sterility and growth control may also be used. Yeast growth may be determined in an Enzyme-Linked ImmunoSorbent Assay Microplate Reader at 530 nm. […]

Assay [2] concerns Candida albicans (ATCC-10231). The assay can be described thus: Antifungal culture microdilution MIC assay. The note with it: ATCC10231, 50% reduction of fungal growth, 48-72 hours. It is filed as cell-based.
Excerpt: as §1, §2, §3
For orientation: Dilution methods test growth across graded concentrations, often in twofold steps.

≈ marks a conversion by molar mass, not a printed value.

In general, MIC50 refers to an inhibitory concentration at the 50% level, which refers to growth in some studies and to a panel of isolates in others. Turning to `CC(=O)N1CCN(c2ccc(OCC3COC(Cn4ccnc4)(c4ccc(Cl)cc4Cl)O3)cc2)CC1` (centres unmarked) [Ketoconazole], the MIC50 in assay [1] and in assay [2] was 0.48 mg/L (≈ 0.903 µM) each time.
